In patent US20240024292A1, “ATALUREN EYE DROP FORMULATION” (INSTITUT NATIONAL DE LA SANTÉ ET DE LA RECHERCHE MÉDICALE, priority 2020, published 2024):
Converted amounts (≈) assume the structure as drawn. “Also recorded” adds a separate entry of the source.

Experiments:
[1] = ophthalmic application, DMSO in association with dilute povidone-iodine; cited from earlier work
[2] = cited from earlier work
[3] = Forced degradation studies (acidic, alkaline, oxidative stress at 60° C.), HPLC quantification; format: physicochemical
Method: (§1) For each unit, ataluren was quantified using the liquid chromatography method adapted from the method described by Kong et al.. Analyses were performed on a Thermo Scientific Ultimate 3000 chromatogram system (Villebon-sur-Yvette, France) including a quaternary pump (LPG 3400A), an automatic sampler (WPS 3000TSL), a diode array detector (DAD 300016) with 5 cm flow cell, and the associated software used to record and interpret chromatograms (Chromeleon®, Version 8.0). The stationary phase consisted in a Kinetex® C18 column (250×4.6 mm; 5 μm, Phenomenex, Le Pecq, France). The mobile phase was a gradient mixture of 0.1% formic acid (A) and acetonitrile (B). The flow rate was maintained at 1 mL/min, and the gradient profile was as follows: t0-11 min: A=30% B=70%; t11-15 min A=70% B=30%. The injection volume was 50 μL. The drug absorbance for quantification was obtained at 276 nm.
[…] To mimic the potential photodegradation occurring prior or after drug administration, photolytic studies were carried out by exposing the drug solutions to direct UV-visible light with and without photocatalyst or photosensitizer (i.e. titanium oxide 1 g L-1, riboflavin 100 mg L-1). Photolysis experiments were performed using a QSUN-XE-1 (Q-Lab, Bolton, United Kingdom) light chamber equipped with a xenon lamp, which simulates natural sunlight in a wavelength range of 300-800 nm. […]

[4] = Photolysis under simulated sunlight, with and without photocatalyst or photosensitizer; format: physicochemical; settings: for % remaining: Direct photolysis, visible ~119,600 lx, UVA 300-400 nm 66.5 W m^−2; for degradation in direct photolytic stress condition: direct light exposure
Method: as §1
The specificity was assessed by subjecting the ataluren 1% solubilized in DMSO (10%) and castor oil solutions to various forced degradation conditions: 0.1M hydrochloric acid (HCl), 0.1M sodium hydroxide (NaOH), 0.3% and 15% hydrogen peroxide (H2O2) for 24 h, 48 h, and 72 h at 60° C. To mimic the potential photodegradation occurring prior or after drug administration, photolytic studies were carried out by exposing the drug solutions to direct UV-visible light with and without photocatalyst or photosensitizer (i.e. titanium oxide 1 g L-1, riboflavin 100 mg L-1). Photolysis experiments were performed using a QSUN-XE-1 (Q-Lab, Bolton, United Kingdom) light chamber equipped with a xenon lamp, which simulates natural sunlight in a wavelength range of 300-800 nm. A Daylight-Q filter was used to simulate CIE Standard Illuminant D65 (Q-Lab) and irradiance was maintained constant (1.5 W m-2 at 420 nm). The measurements corresponded to a visible intensity of ˜119,600 1×, and a UVA intensity at 300-400 nm of 66.5 W m-2. For all the experiments the temperature was controlled and set at 25±0.5° C.

Structure (SMILES) | patients with mild irritation (stinging, tingling or burning at the application), without serious adverse effects [1] | solubility ([2]; 1:1 solution of DMSO: PBS pH 7.2) | solubility in aqueous buffers ([2]; aqueous buffers) | solubility in organic solvents ([2]; organic solvents such as dimethyl sulfoxide (DMSO)) | solubility in water ([2]; water) | appearance of degradation products ([3]; 15% hydrogen peroxide exposure) | degradation under stress ([3]; strong acidic, basic or 0.3% H2O2 conditions, after 7 days exposure) | % remaining ([4]; 30 min exposition) | % remaining ([4]; 60 min exposition) | % remaining ([4]; 180 min exposition) | % remaining ([4]; 360 min exposition) | degradation in direct photolytic stress condition [4] | degradation in direct photolytic stress condition ([4]; listed as Ataluren) | degradation under light with photocatalyst ([4]; in presence of photocatalyst agent (titanium oxide)) | degradation under light with photosensitizer ([4]; in the presence of riboflavin)
C[S+](C)[O-] [DMSO, dimethylsulfoxyde] | 11.8% |  |  |  |  |  |  |  |  |  |  |  |  |  | 
O=C(O)c1cccc(-c2noc(-c3ccccc3F)n2)c1 [ataluren, 3-(5-(2-fluorophenyl)-1,2,4-oxadiazol-3-yl)benzoic acid] |  | ~500 µg/mL (≈ 1760 µM) | sparingly soluble | soluble | very slightly soluble | Degradation products appeared | not degraded | 100.1% | 102.4% | 100.1% | 103.4% | not degraded | did not decrease | rapidly degraded; also recorded: decreased | This was not the case; also recorded: no degradation was observed
